In experiment [1] the target is Tyrosine-protein kinase BTK (Homo sapiens) (UniProt Q06187). As to the kind of experiment: Inhibition of BTK (unknown origin) assessed as residual activity at 1000 nM by KINOMEscan analysis relative to control.
Experiment [2] has as its target Mast/stem cell growth factor receptor Kit (Homo sapiens) (UniProt P10721). As to the kind of experiment: Inhibition of autoinhibited KIT (unknown origin) assessed as residual activity at 1000 nM by KINOMEscan analysis relative to control.
The target of experiment [3] is Ribosomal protein S6 kinase alpha-4 (Homo sapiens) (UniProt O75676). As to the kind of experiment: Inhibition of N-terminal RPS6KA4 […] domain 1 (unknown origin) assessed as residual activity at 1000 nM by KINOMEscan analysis relative to control.
In experiment [4] the target is Serine/threonine-protein kinase Nek6 (Homo sapiens) (UniProt Q9HC98). As to the kind of experiment: Inhibition of NEK6 (unknown origin) assessed as residual activity at 1000 nM by KINOMEscan analysis relative to control.
Sequence of Serine/threonine-protein kinase Nek6 (Homo sapiens) (Q9HC98 whole entry): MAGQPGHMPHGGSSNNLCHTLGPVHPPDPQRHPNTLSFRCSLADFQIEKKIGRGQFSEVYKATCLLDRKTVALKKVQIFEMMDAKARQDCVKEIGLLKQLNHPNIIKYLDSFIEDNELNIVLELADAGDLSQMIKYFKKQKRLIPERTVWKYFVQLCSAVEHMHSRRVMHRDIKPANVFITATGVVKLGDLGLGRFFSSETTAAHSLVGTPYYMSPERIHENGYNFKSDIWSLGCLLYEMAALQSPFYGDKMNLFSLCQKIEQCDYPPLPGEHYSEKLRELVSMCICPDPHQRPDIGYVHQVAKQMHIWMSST
Experiment [5] has as its target Tyrosine-protein kinase receptor Tie-1 (Homo sapiens) (UniProt P35590). As to the kind of experiment: Inhibition of TIE1 (unknown origin) assessed as residual activity at 1000 nM by KINOMEscan analysis relative to control.
The target in experiment [6] is T1, Serine/threonine-protein kinase haspin (Homo sapiens) (UniProt Q8TF76).
T1 sequence (whole entry): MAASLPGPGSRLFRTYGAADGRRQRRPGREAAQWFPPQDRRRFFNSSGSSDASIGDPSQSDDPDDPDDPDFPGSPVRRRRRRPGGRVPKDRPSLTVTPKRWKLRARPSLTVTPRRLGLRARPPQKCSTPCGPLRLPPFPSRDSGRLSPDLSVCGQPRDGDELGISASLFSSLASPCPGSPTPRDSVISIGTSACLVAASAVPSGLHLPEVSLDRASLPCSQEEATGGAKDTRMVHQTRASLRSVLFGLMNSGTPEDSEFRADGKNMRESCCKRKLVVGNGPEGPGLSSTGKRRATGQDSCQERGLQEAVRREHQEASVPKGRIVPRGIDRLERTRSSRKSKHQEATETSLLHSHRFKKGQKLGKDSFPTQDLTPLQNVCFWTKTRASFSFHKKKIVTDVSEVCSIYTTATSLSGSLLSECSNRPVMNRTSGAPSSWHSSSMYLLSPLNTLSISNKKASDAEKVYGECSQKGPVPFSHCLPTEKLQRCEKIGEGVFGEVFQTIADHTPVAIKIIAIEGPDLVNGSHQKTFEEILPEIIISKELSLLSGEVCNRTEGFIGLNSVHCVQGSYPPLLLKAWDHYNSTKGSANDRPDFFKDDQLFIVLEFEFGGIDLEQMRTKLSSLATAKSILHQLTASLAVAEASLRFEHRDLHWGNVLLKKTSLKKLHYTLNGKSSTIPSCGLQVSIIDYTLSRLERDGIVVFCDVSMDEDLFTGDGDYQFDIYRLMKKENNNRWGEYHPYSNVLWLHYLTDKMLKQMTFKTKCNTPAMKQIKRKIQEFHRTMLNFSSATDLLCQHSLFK
As to the kind of experiment: Inhibition of HASPIN (unknown origin) assessed as residual activity at 1000 nM by KINOMEscan analysis relative to control.

Experiment [7] addresses Vascular endothelial growth factor receptor 3 (Homo sapiens) (UniProt P35916). As to the kind of experiment: Inhibition of FLT4 (unknown origin) assessed as residual activity at 1000 nM by KINOMEscan analysis relative to control.
Experiment [8] has as its target T2, Son of sevenless homolog 1 (Homo sapiens) (UniProt Q07889).
T2 sequence (whole entry): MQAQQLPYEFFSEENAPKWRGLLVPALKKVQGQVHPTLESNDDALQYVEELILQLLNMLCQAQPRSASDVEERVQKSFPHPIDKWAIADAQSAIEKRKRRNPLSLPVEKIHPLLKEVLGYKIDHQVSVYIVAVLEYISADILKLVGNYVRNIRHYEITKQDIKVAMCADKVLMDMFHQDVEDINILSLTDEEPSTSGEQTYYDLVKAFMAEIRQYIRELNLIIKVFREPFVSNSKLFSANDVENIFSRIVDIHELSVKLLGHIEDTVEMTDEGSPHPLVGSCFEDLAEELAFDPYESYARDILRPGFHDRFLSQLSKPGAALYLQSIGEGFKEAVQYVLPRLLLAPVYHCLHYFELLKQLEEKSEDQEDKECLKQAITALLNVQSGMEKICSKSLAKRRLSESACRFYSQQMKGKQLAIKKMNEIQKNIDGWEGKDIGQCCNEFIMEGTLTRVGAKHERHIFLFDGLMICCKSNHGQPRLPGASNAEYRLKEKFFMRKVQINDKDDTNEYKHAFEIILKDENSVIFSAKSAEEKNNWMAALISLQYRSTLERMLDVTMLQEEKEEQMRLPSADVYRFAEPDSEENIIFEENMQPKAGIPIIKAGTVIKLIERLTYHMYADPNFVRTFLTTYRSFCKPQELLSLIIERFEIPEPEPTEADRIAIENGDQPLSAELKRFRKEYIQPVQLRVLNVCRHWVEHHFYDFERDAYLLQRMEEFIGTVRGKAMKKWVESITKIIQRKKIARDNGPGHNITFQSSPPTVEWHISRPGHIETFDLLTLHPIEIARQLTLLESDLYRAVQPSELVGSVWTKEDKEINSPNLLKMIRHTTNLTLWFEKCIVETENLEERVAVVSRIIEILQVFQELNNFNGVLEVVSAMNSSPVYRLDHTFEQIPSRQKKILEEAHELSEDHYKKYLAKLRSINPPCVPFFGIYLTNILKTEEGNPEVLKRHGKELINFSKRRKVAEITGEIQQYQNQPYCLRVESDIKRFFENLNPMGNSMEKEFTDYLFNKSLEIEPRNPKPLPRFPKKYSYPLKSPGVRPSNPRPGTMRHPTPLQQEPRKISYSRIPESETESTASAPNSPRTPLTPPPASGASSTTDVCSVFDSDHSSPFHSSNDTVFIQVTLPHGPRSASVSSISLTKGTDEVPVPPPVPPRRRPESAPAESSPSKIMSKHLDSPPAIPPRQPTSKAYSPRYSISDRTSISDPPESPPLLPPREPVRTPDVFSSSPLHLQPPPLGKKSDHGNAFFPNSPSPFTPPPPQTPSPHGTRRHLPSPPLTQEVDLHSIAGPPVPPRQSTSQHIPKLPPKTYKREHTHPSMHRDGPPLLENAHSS
As to the kind of experiment: Binding affinity to N-terminal His10-tagged wild-type recombinant human SOS1 catalytic domain (564 to 1049 residues) expressed in Escherichia coli assessed as change in entropy by ITC analysis. A general note: ITC needs no label: the signal is the heat of the interaction.

SMILES strings stand for the structures.

Sequence of Mast/stem cell growth factor receptor Kit (Homo sapiens) (P10721 whole entry): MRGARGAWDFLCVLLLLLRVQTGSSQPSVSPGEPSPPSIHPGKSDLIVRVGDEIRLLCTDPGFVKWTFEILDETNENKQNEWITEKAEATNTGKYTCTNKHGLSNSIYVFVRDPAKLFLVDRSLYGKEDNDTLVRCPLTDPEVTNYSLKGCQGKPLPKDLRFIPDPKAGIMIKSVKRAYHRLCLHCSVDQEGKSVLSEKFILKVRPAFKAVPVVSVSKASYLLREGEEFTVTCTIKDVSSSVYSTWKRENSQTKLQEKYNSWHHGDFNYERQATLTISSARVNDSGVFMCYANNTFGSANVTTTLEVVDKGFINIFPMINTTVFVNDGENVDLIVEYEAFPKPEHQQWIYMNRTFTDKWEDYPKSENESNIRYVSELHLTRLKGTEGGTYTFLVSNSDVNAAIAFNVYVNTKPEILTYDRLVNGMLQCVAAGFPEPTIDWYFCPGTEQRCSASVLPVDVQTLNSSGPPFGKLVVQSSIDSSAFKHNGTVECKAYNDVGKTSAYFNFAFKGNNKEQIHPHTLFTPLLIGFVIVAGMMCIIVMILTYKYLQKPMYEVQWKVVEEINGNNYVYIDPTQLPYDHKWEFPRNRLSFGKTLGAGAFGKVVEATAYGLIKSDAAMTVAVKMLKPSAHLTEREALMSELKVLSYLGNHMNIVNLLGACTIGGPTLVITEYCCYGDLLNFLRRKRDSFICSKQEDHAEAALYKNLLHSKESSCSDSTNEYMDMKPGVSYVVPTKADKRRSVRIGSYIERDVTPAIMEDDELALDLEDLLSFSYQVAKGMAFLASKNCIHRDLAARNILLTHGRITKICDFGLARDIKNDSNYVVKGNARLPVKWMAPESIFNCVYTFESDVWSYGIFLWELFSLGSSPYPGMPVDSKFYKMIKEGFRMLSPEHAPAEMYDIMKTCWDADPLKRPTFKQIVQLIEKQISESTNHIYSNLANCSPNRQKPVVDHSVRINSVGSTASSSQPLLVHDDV
Sequence of Vascular endothelial growth factor receptor 3 (Homo sapiens) (P35916 whole entry): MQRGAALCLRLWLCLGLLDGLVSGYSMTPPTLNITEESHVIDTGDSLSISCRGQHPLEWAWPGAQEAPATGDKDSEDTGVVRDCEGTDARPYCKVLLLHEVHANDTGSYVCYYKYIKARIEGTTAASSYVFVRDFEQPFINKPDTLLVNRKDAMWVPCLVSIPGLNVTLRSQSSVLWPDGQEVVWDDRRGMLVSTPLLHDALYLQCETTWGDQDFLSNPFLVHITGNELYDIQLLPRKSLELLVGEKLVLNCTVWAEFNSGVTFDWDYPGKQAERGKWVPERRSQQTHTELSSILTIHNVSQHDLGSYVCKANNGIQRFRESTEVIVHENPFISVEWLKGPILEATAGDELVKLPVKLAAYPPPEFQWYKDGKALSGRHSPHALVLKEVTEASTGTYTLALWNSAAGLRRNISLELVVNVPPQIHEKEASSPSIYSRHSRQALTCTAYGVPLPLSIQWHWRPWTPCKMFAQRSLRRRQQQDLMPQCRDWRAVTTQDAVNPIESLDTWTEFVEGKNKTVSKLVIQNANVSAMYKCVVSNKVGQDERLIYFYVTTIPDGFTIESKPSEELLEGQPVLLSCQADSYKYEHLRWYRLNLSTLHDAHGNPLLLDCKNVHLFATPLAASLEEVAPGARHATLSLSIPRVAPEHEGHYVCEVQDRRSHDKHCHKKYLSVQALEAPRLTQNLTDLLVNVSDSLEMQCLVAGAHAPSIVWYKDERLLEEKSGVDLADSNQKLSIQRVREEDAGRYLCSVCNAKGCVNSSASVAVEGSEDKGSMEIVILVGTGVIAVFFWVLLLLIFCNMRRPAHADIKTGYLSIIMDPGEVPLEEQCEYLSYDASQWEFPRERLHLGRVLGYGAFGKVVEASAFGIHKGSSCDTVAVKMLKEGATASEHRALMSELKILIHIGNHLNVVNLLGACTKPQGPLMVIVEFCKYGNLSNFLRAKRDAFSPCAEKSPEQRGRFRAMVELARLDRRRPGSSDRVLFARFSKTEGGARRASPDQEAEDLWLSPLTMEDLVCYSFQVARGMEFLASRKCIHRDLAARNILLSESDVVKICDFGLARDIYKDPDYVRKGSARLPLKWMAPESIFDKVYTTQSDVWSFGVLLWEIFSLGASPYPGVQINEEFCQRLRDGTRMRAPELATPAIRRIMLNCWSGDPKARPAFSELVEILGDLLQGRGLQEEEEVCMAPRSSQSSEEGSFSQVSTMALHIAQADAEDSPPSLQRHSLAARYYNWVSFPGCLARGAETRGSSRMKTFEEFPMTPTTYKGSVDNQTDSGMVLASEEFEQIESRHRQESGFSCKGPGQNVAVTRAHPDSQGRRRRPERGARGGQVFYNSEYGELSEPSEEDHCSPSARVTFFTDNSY
Sequence of Tyrosine-protein kinase receptor Tie-1 (Homo sapiens) (P35590 whole entry): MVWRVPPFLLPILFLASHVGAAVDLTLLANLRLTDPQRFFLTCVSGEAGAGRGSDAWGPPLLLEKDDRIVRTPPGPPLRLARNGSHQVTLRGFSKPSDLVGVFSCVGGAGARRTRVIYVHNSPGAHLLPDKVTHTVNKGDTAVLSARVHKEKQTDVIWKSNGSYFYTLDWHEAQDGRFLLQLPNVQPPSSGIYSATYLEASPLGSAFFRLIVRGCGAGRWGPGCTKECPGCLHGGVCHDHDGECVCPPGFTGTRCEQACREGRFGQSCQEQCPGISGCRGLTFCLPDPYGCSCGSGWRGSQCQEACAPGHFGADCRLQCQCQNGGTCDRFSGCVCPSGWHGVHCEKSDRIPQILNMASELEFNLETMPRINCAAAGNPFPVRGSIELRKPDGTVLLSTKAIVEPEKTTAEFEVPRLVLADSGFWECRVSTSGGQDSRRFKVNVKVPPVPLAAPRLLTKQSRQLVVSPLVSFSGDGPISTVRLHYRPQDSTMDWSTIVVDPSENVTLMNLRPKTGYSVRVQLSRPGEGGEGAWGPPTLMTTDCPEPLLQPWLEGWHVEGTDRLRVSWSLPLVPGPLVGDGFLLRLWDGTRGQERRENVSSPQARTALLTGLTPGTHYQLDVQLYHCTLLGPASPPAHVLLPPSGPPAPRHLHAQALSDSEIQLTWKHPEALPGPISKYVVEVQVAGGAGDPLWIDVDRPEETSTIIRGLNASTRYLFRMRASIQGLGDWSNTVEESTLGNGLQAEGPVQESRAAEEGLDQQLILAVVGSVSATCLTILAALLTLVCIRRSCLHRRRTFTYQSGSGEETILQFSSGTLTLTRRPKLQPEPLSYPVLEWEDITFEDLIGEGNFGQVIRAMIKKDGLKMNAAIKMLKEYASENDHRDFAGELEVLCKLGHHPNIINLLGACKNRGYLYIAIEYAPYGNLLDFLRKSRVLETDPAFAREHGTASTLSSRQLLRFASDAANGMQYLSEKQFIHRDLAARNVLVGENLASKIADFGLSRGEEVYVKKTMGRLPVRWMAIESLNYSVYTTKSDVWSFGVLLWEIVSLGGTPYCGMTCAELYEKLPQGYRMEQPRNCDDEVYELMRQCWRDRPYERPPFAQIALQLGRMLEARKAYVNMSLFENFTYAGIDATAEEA
Sequence of Tyrosine-protein kinase BTK (Homo sapiens) (Q06187 whole entry): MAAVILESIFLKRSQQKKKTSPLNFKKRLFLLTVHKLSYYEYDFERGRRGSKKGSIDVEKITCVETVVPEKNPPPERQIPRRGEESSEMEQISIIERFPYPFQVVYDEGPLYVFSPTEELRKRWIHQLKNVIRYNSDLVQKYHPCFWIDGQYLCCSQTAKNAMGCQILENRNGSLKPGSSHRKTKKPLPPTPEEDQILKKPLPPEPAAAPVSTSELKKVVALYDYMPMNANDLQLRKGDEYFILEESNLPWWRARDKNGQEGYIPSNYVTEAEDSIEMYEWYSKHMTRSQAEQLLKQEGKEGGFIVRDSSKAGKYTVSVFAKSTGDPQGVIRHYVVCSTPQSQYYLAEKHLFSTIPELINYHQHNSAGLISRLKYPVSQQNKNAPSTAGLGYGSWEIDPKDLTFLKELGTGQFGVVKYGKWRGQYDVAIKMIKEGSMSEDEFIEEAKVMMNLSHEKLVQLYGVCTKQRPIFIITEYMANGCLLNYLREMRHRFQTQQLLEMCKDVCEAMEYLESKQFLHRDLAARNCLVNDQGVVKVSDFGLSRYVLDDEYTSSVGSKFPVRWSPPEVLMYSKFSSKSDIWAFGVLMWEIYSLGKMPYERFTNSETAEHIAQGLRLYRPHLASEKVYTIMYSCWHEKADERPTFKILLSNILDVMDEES

Consider `COc1cc2nc(C)nc(N[C@H](C)c3cccc(-c4cn[nH]c4)c3)c2cc1OC`, for which the Activity in experiment [1] stood at 100%; in experiment [2], 100%; in experiment [3], 0%; in experiment [4], 93%; in experiment [5] it was 87%; in experiment [6] it was 81%. Further, the Activity in experiment [7] turned out to be 90%.
As to `COc1cc2ncnc(N[C@H](C)c3cccc4ccccc34)c2cc1OC`, the Activity was 97% in experiment [1]; 93% in experiment [2]; 100% in experiment [3]; 97% in experiment [4]; 100% in experiment [5]; 99% in experiment [6]. Moreover, the Activity in experiment [7] is 100%. For the same compound, in experiment [8], the -TdeltaS worked out at 5.5 kcal/mol.
Turning to `CNCc1ccccc1-c1csc([C@@H](C)Nc2nc(C)nc3cc(OC)c(OC)cc23)c1` [BAY-293], the -TdeltaS in experiment [8] worked out at 5.5 kcal/mol.

The values are drawn from ChEMBL document CHEMBL5678818, “Discovery of potent SOS1 inhibitors that block RAS activation via disruption of the RAS-SOS1 interaction” (Proc Natl Acad Sci U S A, 2019).
